Assay results reported in patent US20220096650A1 (Glaxosmithkline Intellectual Property Development Limited, priority 2019, published 2022).

Legend:
[1] = system: CD4 and CD8 T cells in PBMC; test: PBMC T cell activation assay (anti-CD3/anti-CD28 stimulation), activation markers by flow cytometry; assay type: cell-based, human; conditions: 24 and 72 hrs, 30, 3 and 0.3 μg/mL
Source text: T cells can be activated through the engagement of the T cell receptor (TCR) and co-stimulatory molecules expressed on the cell surface. […] Furthermore, upon activation, T cells produce cytokines such as IFNγ and IL-4. The effect of BCMA ADC on IFNγ and IL-4 productions in stimulated T cells was also studied. These experiments can provide data on the effect of BCMA ADC on T cells activation and function. In addition, proliferation of human CD4+ and CD8+ T cells upon stimulation in the presence of BCMA ADC was also evaluated. Human blood was obtained from the blood donor procurement program at GlaxoSmithKline. Peripheral blood mononuclear cells (PBMCs) were isolated from human whole blood by Ficoll density gradient centrifugation (GE Healthcare). Anti-human CD3 antibody (eBioscience, catalog #16-0037-85, clone OKT3) diluted with coating buffer (Biolegend, catalog #421701) was coated on 96 well flat-bottom plate overnight.
In this study, BCMA ADC treatment and PBMC activation occurred concurrently and the effects were monitored at 24 and 72 hrs. […] Immunofluorescence analysis was performed on a FACS CANTO II flow cytometer (BD Biosciences) and analyzed with DIVA software (BD Biosciences). Flow cytometry was used to monitor the percentage of CD4 or CD8 cells that express a given marker, and the mean fluorescence intensity (MFI) of this maker in CD4 or CD8 cells. […]

[2] = system: multiple myeloma; test: Phase 1 clinical trial in relapsed and refractory multiple myeloma patients; assay type: in vivo, human
Source text: Multiple myeloma (MM) is a disease that affects plasma cells and leads to devastating clinical features. MM is the second most common hematological malignancy and remains an incurable disease. Therefore, novel targeted therapies are in need.

[3] = system: CD4 and CD8 cells in PBMC; test: IFNγ and IL-4 production by T cells upon anti-CD3/anti-CD28 stimulation in PBMC; assay type: cell-based, human; conditions: 48 and 72 hours
Description: This study was repeated two times (n=2) with blood from two different donors. 100 μL PBMCs (1×10^6 cells/mL) in RPMI-1640 with 10% FBS were added into anti-CD3 antibody coated wells with or without soluble 0.5 μg/mL anti-CD28 antibody. […] Three technical replicates were included for each assay condition. At the end of the study, cells were transferred, washed, stained and analyzed by flow cytometry as described in section 3.1. For intracellular staining, cells were fixed by cytofix buffer (BD Biosciences, Catalog #554655) at room temperature for 20 minutes and permeablized by perm/wash buffer (BD Biosciences, catalog #554723) at room temperature for 30 minutes before staining with antibodies or isotype controls.
The raw percentage and MFI data for each marker at each concentration of BCMA ADC was compared to the corresponding IgG control in the statistical analysis. To account for the variability of the different blood donors, a linear mixed effect model was used to analyze the data. […]
For data reporting, the average percentage or average MFI value among three technical replicates was generated at each BCMA ADC concentration and the % difference values were calculated as: % difference=(Avg 916−Avg IgG)*100/Avg IgG, where Avg 916 and Avg IgG represent the average values of the BCMA ADC treatment group and the IgG control group, respectively. […]

## GSK2857916
[1]
  effect on anti-CD3/anti-CD28 stimulated CD4 and CD8 T cell activation: minimal effect
[2]
  overall response rate: 60%
[3]
  IFNγ production: no significant effect
  IL-4 production: no significant effect
